Test results as given in ChEMBL document CHEMBL4024736, “Recent progress on the treatment of Ebola virus disease with Favipiravir and other related strategies” (Bioorg Med Chem Lett, 2017).
In brackets after ≈: the same amount, converted by molar mass.

How the values were obtained:
Ebolavirus [1] = experiment: Antiviral activity against Ebola virus Mayinga Zaire 1976 infected in IFNAR-/- C57BL/6 mouse assessed as survival at 300 mg/kg, po administered twice daily for 13 days measured after 3 weeks; type: functional; conditions: Orthoebolavirus
[2] = Antiviral activity against Respiratory syncytial virus A2 infected in Hep2 cells; type: functional, cell-based; conditions: human respiratory syncytial virus, HEp-2
Ebolavirus [3] = experiment: Antiviral activity against Ebola virus Mayinga Zaire 1976 infected in IFNAR-/- C57BL/6 mouse assessed as biochemical correlates of disease at 300 mg/kg, po administered twice daily; type: functional
Ebolavirus [4] = experiment: Antiviral activity against Ebolavirus E718 infected in Vero E6 cells assessed as effective dose after 6 days by neutral red stain based microscopic method; type: functional, Vero C1008
Ebolavirus [5] = experiment: Antiviral activity against Ebolavirus E718 infected in A129 interferon alpha/beta receptor knockout immunodeficient mouse assessed as survival rate at 150 mg/kg, po administered twice daily for 14 days measured after 2 weeks post last dose relative to control; type: functional; conditions: Orthoebolavirus, 336 h
Ebolavirus [6] = experiment: Antiviral activity against Ebolavirus assessed as reduction in viral titer; type: functional; conditions: Orthoebolavirus
[7] = Antiviral activity against Foot-and-mouth disease virus O/JPN/2000 by plaque reduction assay; type: functional
Ebolavirus [8] = experiment: Antiviral activity against Ebola virus Mayinga Zaire 1976 infected in IFNAR-/- C57BL/6 mouse at 300 mg/kg, po administered twice daily measured up to 6 days post infection; type: functional

NC(=O)c1nc(F)cnc1O [FAVIPIRAVIR]
survival at 300 mg/kg (Ebolavirus [1]): 100%
IC50 [2]: 41 µg/mL (≈ 261 µM)
Activity (Ebolavirus [3]): 20%
ED (Ebolavirus [4]): 400 µM
survival at 150 mg/kg (Ebolavirus [5]): 100%
IC50 (Ebolavirus [6]): 67 µM
EC50 [7]: 12 µM
Activity (Ebolavirus [8]): 100%
